{"source": "PubChem BioAssay AID1117361", "about": "(Southern Research Institute, 2015)"}
{"target": "Protein Tat (Human immunodeficiency virus type 1 group M subtype B (isolate HXB2)) (UniProt P04608)", "sequence (P04608 whole entry, looked up)": "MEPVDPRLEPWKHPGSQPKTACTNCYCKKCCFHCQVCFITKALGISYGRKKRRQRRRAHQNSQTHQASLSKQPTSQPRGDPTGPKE", "assay": "HIV-1 Tat–TAR interaction blockers – biochemical, fluorescence polarization, FAM-labeled TAR RNA, counter-screen for Vif-APOBEC3G degradation inhibitor project, dose response (AID 1117361)", "conditions": "Tat-TAR RNA binding", "units": {"IC50": "µM"}}
{"compound": "O=C1C=C(N2CC2)c2ccccc2C1=O", "IC50": 80.9}
{"compound": "O=C1C=Cc2ccccc2C1=O", "IC50": 30.5}
{"compound": "Cc1cccc(C)c1NC(=O)CSc1nnc(-c2ccco2)c(-c2ccco2)n1", "IC50": 6.43}
{"compound": "CC(=O)Nc1ccc(S(=O)(=O)NCCSCc2ccco2)cc1", "IC50": 65.8}
{"compound": "CNc1ccccc(-c2ccc3cc4c(cc3n2)OCO4)c1=O", "IC50": 2.22}
{"compound": "O=C1/C(=C\\c2ccco2)NC(=S)N1c1ccccc1", "IC50": 16.1}
{"compound": "CN1CCC(N(C)C(=O)COc2ccccc2-c2ccccc2)CC1", "IC50": 63.7}
{"compound": "CCN(CC)c1ccc2oc(=O)c(C)nc2c1", "IC50": 20.2}
{"compound": "Cc1ccc(C(CC(=O)NCc2ccco2)c2ccccc2)c(O)c1", "note": "(stereo not given)", "IC50": 30}
{"compound": "Brc1c(CSc2nnc(-c3ccco3)o2)nc2ccccn12", "IC50": 23.9}
{"compound": "Oc1ccc(-c2cn3c(n2)SCC3)cc1O", "IC50": 71.9}
{"compound": "CCOC(=O)N1CCN(C(=O)c2ccc3c(SCC(=O)O)c4c(nc3c2)CCC4)CC1", "IC50": 7.65}
{"compound": "COc1cc(C(=O)NCc2nnc(SCC(=O)Nc3nc4ccc(C)cc4s3)o2)cc(OC)c1OC", "IC50": 35.9}
{"compound": "CCCCC(=O)NC(=S)Nc1cc(C(=O)O)ccc1Cl", "IC50": 51.2}
{"compound": "COc1ccc(NC(=O)CC2Nc3cccc4cccc(c34)NC2=O)cc1", "note": "(stereo not given)", "IC50": 7.03}
{"compound": "C=CCn1c(COc2ccc(F)cc2)nnc1SCC(=O)NC(=O)NCc1ccco1", "IC50": 93.8}
{"compound": "COc1ccccc1NCCC(=O)OCC(=O)NCc1ccco1", "IC50": 58}
{"compound": "O=C(O)CSc1c2c(nc3cc(C(=O)Nc4cccc(C(F)(F)F)c4)ccc13)CCC2", "IC50": 56.2}
{"compound": "O=c1ccc2c(-c3ccccc3S(=O)(=O)O)c3ccc(O)c(O)c3oc-2c1O", "IC50": 4.84}
{"compound": "O=C1NC(=O)C(=Cc2ccc(SC3CCCCC3)o2)C(=O)N1", "IC50": 30.9}
{"compound": "O=S(=O)(O)c1cc(O)c2cc(Nc3ccccc3)ccc2c1", "IC50": 20.5}
{"compound": "O=C(O)C[C@@H]1C(=O)O[C@@H]2C(COC(=O)c3cc(O)c(O)c(O)c3)O[C@@H](OC(=O)c3cc(O)c(O)c(O)c3)[C@@H](OC(=O)c3cc(O)c(O)c4c3[C@H]1[C@H](O)C(=O)O4)[C@H]2OC(=O)c1cc(O)c(O)c(O)c1", "note": "(stereo not given in full)", "IC50": 0.556}
{"compound": "Nc1ncnc2oc(-c3ccco3)c(-c3ccco3)c12", "IC50": 3.36}
{"compound": "N#Cc1c(NC(=O)CSc2ncnc3sccc23)oc(-c2ccco2)c1-c1ccco1", "IC50": 2.52}
{"compound": "Cc1ccc(N(CC(=O)NCCSCc2ccco2)S(=O)(=O)c2ccc(F)cc2)cc1", "IC50": 63.7}
{"compound": "Cc1ccc(S(=O)(=O)N2CCC(C(=O)Nc3nnc(-c4ccco4)s3)CC2)cc1", "IC50": 51.1}
{"compound": "CCNc1ccc(Br)cc(C(=O)/C=C/c2ccc(Cl)cc2)c1=O", "IC50": 12.5}
{"compound": "COc1ccc(OC)c(N2C(=O)[C@@H]3C(c4ccccc4Cl)=NO[C@@H]3C2=O)c1", "IC50": 82.1}
{"compound": "Cn1nc(-c2ccc(Cl)cc2)c2cc(C(=O)N3CCN(c4ccccc4)CC3)sc21", "IC50": 12.6}
{"compound": "Cc1cc(-c2csc(NC(=O)c3ccc(C#N)cc3)n2)c(C)n1Cc1ccco1", "IC50": 16.7}
{"compound": "NS(=O)(=O)c1ccc(N=Nc2c[nH]c(=O)c(O)c2)cc1", "IC50": 9.47}
{"compound": "COC1=C(N)C(=O)c2nc(-c3nc(C(=O)O)c(C)c(-c4ccc(OC)c(OC)c4O)c3N)ccc2C1=O", "IC50": 42.1}
{"compound": "CCN1CCN(C2=NC(=O)/C(=C/c3ccc(C)o3)S2)CC1", "IC50": 1.47}
{"compound": "CNC[C@H](O)c1ccc(O)c(O)c1", "IC50": 11.8}
{"compound": "Cc1c(O)cc2c(c1O)C(=O)CC(c1ccc(O)cc1)O2", "note": "(stereo not given)", "IC50": 37.2}
{"compound": "O=C(COC(=O)/C=C/c1ccco1)Nc1ncc(C(F)(F)F)cc1Cl", "IC50": 20.2}
{"compound": "CCOc1ccc2[nH]c(=O)c(CN(Cc3nnnn3Cc3ccco3)C3CCCCC3)cc2c1", "IC50": 24.9}
{"compound": "CCOC(=O)c1ccc2c(c1)C1C=CCC1C(C(=O)O)N2", "note": "(stereo not given)", "IC50": 11}
{"compound": "CCN(CC)C(=O)c1ccc2c(c1)C1C(Cl)C(Sc3ccccc3[N+](=O)[O-])CC1C(C(=O)O)N2", "note": "(stereo not given)", "IC50": 5.54}
{"compound": "Cc1cccc(NC2=Nc3ccccc3N3C2=Nc2c(c(C)nn2-c2ccccc2)C3c2ccc(O)c(O)c2)c1", "note": "(stereo not given)", "IC50": 43}
{"compound": "Cc1onc(-c2ccccc2Cl)c1C(=O)NCc1ccco1", "IC50": 6.65}
{"compound": "O=C(c1ccc2nc(-c3ccco3)c(-c3ccco3)nc2c1)N1CCC2(CC1)OCCO2", "IC50": 4.26}
{"compound": "C=CCSC1=N/C(=C\\C=C\\c2ccco2)C(=O)S1", "IC50": 1.89}
{"compound": "CC(C)n1c(=NC(=O)c2ccco2)c(C#N)cc2c(=O)n3ccccc3cc21", "IC50": 95.9}
{"compound": "CC(=C\\c1ccco1)/C=C1/SC(=S)N(CC(=O)O)C1=O", "IC50": 8.8}
{"compound": "COC(=O)c1ccccc1-c1c2ccc(=N)cc-2oc2cc(N)ccc12", "IC50": "< 0.19"}
{"compound": "Cc1cccc(N(C(=O)Cn2nnc3ccccc32)C(C(=O)NCc2ccco2)c2ccncc2)c1C", "note": "(stereo not given)", "IC50": 27.6}
{"compound": "O=C(NC1CC1)c1cc(-c2ccco2)nc2ccccc12", "IC50": 9.27}
{"compound": "Nc1cccc2c(O)cc(S(=O)(=O)O)cc12", "IC50": 19.3}
{"compound": "O=C(/C=C/c1ccco1)NC(=S)Nc1ccccc1N1CCOCC1", "IC50": 25.8}
{"compound": "O=C1c2ccccc2C(=O)N1/N=C/c1ccc(O)c(O)c1O", "IC50": 14.7}
{"compound": "Cn1c(=O)c2c(ncn2CC(=O)N/N=C/C=C/c2ccco2)n(C)c1=O", "IC50": 17.1}
{"compound": "O=[N+]([O-])c1ccc(Sc2nc3ccccc3o2)c([N+](=O)[O-])c1", "IC50": 16.4}
{"compound": "COc1ccc2nc3ccccc3nc2c1N", "IC50": 81.6}
{"compound": "CCOC(=O)C(=O)NCc1ccc(/C=C2/N=C(C)C(C(=O)OCC)=C2O)o1", "IC50": 4.71}
